Patent US20250129430A1, “HIGH ATP-AFFINITY PROTEIN AS THERAPEUTIC TARGET FOR INTRACTABLE CANCER MOLECULAR SUBTYPES AND INHIBITOR THEREOF” (VeraVerse Co., Ltd., priority 2021, published 2025)

Tests used:
Experiment in all cases: Cell viability drug screen, 12-point dose-response AUC
Format in all cases: cell-based, human
[1] = tested on: SNU1750; details: 72 hours; for Average Area Under the Viability Curve (AUC), AUC norm value: SNU1750 cells (SEM subtype)
Procedure, shortened: (§1)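 Dose-response AUC reflects 72 h drug exposure of gastric cancer cells in a 12-point, half-log format, with viability read by luminescence and normalized to DMSO (0.5%).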

[2] = tested on: NCC24; details: NCC24 cells, 72 hours
Procedure, shortened: as §1

[3] = tested on: NCC19; details: NCC19 cells, 72 hours
Procedure, shortened: as §1

[4] = tested on: SK4; details: 72 hours; for Average Area Under the Viability Curve (AUC), AUC norm value: SK4 cells (SEM subtype)
Procedure, shortened: as §1

[5] = tested on: YCC3; details: YCC3 cells, 72 hours
Procedure, shortened: as §1

[6] = tested on: SNU16; details: SNU16 cells, 72 hours
Procedure, shortened: as §1

[7] = tested on: SNU719; details: SNU719 cells, 72 hours
Procedure, shortened: (§2)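 Viability: luminescence (Glo kit, 15 min RT), normalized to 0.5% DMSO vehicle. Dosing: half-log, 12 concentrations, 72 h. Cells: 5×10^3/well, treated 24 h after plating. Value: trapezoidal AUC, mean of repeats.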

[8] = tested on: NCC59; details: NCC59 cells, 72 hours
Procedure, shortened: as §1

[9] = tested on: MKN74; details: MKN74 cells, 72 hours
Procedure, shortened: as §2

[10] = tested on: MKN1; details: MKN1 cells, 72 hours
Procedure, shortened: as §1

[11] = tested on: KATO3; details: KATO3 cells, 72 hours
Procedure, shortened: as §1

[12] = tested on: SNU668; details: 72 hours; for Average Area Under the Viability Curve (AUC), AUC norm value: SNU668 cells (SEM subtype)
Procedure, shortened: as §1

[13] = tested on: Hs746T; details: 72 hours; for Average Area Under the Viability Curve (AUC), AUC norm value: Hs746T cells (SEM subtype)
Procedure, shortened: as §1

[14] = tested on: SNU1; details: SNU1 cells, 72 hours
Procedure, shortened: as §1

[15] = tested on: SNU620; details: SNU620 cells, 72 hours
Procedure, shortened: as §1

[16] = tested on: SNU601; details: SNU601 cells, 72 hours
Procedure, shortened: as §1

[17] = tested on: NCC20; details: NCC20 cells, 72 hours
Procedure, shortened: as §1

[18] = tested on: SNU638; details: SNU638 cells, 72 hours
Procedure, shortened: as §1

[19] = tested on: SNU1967; details: SNU1967 cells, 72 hours
Procedure, shortened: as §1

[20] = tested on: MKN45; details: 72 hours; for Average Area Under the Viability Curve (AUC), AUC norm value: MKN45 cells (non-SEM subtype)
Procedure, shortened: as §2

[21] = tested on: AGS; details: 72 hours; for Average Area Under the Viability Curve (AUC), AUC norm value: AGS cells (non-SEM subtype)
Procedure, shortened: as §2

[22] = tested on: MKN28; details: MKN28 cells, 72 hours
Procedure, shortened: as §1

[23] = tested on: YCC2; details: YCC2 cells, 72 hours
Procedure, shortened: as §1

[24] = tested on: NCI_N87; details: NCI_N87 cells, 72 hours
Procedure, shortened: as §1

[25] = tested on: SNU216; details: 72 hours; for Average Area Under the Viability Curve (AUC), AUC norm value: SNU216 cells (non-SEM subtype)
Procedure, shortened: as §2

[26] = tested on: YCC11; details: 72 hours; for Average Area Under the Viability Curve (AUC), AUC norm value: YCC11 cells (SEM subtype)
Procedure, shortened: as §1

[27] = tested on: SNU484; details: 72 hours; for Average Area Under the Viability Curve (AUC), AUC norm value: SNU484 cells (SEM subtype)
Procedure, shortened: as §1

[28] = tested on: OCUM1; details: OCUM1 cells, 72 hours
Procedure, shortened: as §1

[29] = tested on: FU97; set-up: Average Area Under the Viability Curve (AUC), AUC norm value: scale not given here; details: FU97 cells, 72 hours
Procedure, shortened: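 Trapezoidal AUC of a 12-point, DMSO-normalized dose-response curve. Luminescent viability was measured after 72 h of exposure at 37° C to half-log serial dilutions (0.5% DMSO control), dosed 24 h after plating FU97 cells at 5×10^3 per well.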

## CC(C)n1nc(-c2ccc3oc(N)nc3c2)c2c(N)ncnc21 [INK 128 (MLN0128), INK 128]
[1]
  Average Area Under the Viability Curve (AUC), AUC norm value: −1.079
[2]
  Average Area Under the Viability Curve (AUC), AUC norm value: 0.7502
[3]
  Average Area Under the Viability Curve (AUC), AUC norm value: 0.3022
[4]
  Average Area Under the Viability Curve (AUC), AUC norm value: −2.931
[5]
  Average Area Under the Viability Curve (AUC), AUC norm value: 0.8535
[6]
  Average Area Under the Viability Curve (AUC), AUC norm value: −0.8733
[7]
  Average Area Under the Viability Curve (AUC), AUC norm value: 3.8255
[8]
  Average Area Under the Viability Curve (AUC), AUC norm value: 1.541
[9]
  Average Area Under the Viability Curve (AUC), AUC norm value: −0.4883
[10]
  Average Area Under the Viability Curve (AUC), AUC norm value: −0.7444
[11]
  Average Area Under the Viability Curve (AUC), AUC norm value: 1.633
[12]
  Average Area Under the Viability Curve (AUC), AUC norm value: 1.085
[13]
  Average Area Under the Viability Curve (AUC), AUC norm value: −1.821
[14]
  Average Area Under the Viability Curve (AUC), AUC norm value: 1.281
[15]
  Average Area Under the Viability Curve (AUC), AUC norm value: 0.08832
[16]
  Average Area Under the Viability Curve (AUC), AUC norm value: 1.346
[17]
  Average Area Under the Viability Curve (AUC), AUC norm value: −2.568
[18]
  Average Area Under the Viability Curve (AUC), AUC norm value: 0.2387
[19]
  Average Area Under the Viability Curve (AUC), AUC norm value: −0.4728
[20]
  Average Area Under the Viability Curve (AUC), AUC norm value: −0.5935
[21]
  Average Area Under the Viability Curve (AUC), AUC norm value: −1.244
[22]
  Average Area Under the Viability Curve (AUC), AUC norm value: 1.195
[23]
  Average Area Under the Viability Curve (AUC), AUC norm value: 0
[24]
  Average Area Under the Viability Curve (AUC), AUC norm value: 0.7081
[25]
  Average Area Under the Viability Curve (AUC), AUC norm value: −0.9082
[26]
  Average Area Under the Viability Curve (AUC), AUC norm value: −2.648
[27]
  Average Area Under the Viability Curve (AUC), AUC norm value: −1.089
[28]
  Average Area Under the Viability Curve (AUC), AUC norm value: 0.03105
[29]
  Average Area Under the Viability Curve (AUC), AUC norm value: −2.857

## Cn1cc(CNCC2CCN(c3ncc(C(=O)NO)cn3)CC2)c2ccccc21 [JNJ-26481585]
[1]
  Average Area Under the Viability Curve (AUC), AUC norm value: −0.8596
[2]
  Average Area Under the Viability Curve (AUC), AUC norm value: −1.592
[3]
  Average Area Under the Viability Curve (AUC), AUC norm value: 0.3912
[4]
  Average Area Under the Viability Curve (AUC), AUC norm value: −0.3258
[5]
  Average Area Under the Viability Curve (AUC), AUC norm value: 0.3561
[6]
  Average Area Under the Viability Curve (AUC), AUC norm value: −0.7883
[7]
  Average Area Under the Viability Curve (AUC), AUC norm value: 3.527
[8]
  Average Area Under the Viability Curve (AUC), AUC norm value: 3.687
[9]
  Average Area Under the Viability Curve (AUC), AUC norm value: −0.06428
[10]
  Average Area Under the Viability Curve (AUC), AUC norm value: 0.558
[11]
  Average Area Under the Viability Curve (AUC), AUC norm value: 0.3482
[12]
  Average Area Under the Viability Curve (AUC), AUC norm value: 1.486
[13]
  Average Area Under the Viability Curve (AUC), AUC norm value: 0.2906
[14]
  Average Area Under the Viability Curve (AUC), AUC norm value: −0.984
[15]
  Average Area Under the Viability Curve (AUC), AUC norm value: −1.2467
[16]
  Average Area Under the Viability Curve (AUC), AUC norm value: 1.501
[17]
  Average Area Under the Viability Curve (AUC), AUC norm value: −1.396
[18]
  Average Area Under the Viability Curve (AUC), AUC norm value: 0.1995
[19]
  Average Area Under the Viability Curve (AUC), AUC norm value: −1.0365
[20]
  Average Area Under the Viability Curve (AUC), AUC norm value: 2.743
[21]
  Average Area Under the Viability Curve (AUC), AUC norm value: −1.073
[22]
  Average Area Under the Viability Curve (AUC), AUC norm value: −0.5312
[23]
  Average Area Under the Viability Curve (AUC), AUC norm value: −0.1018
[24]
  Average Area Under the Viability Curve (AUC), AUC norm value: −0.2649
[25]
  Average Area Under the Viability Curve (AUC), AUC norm value: 0.3424
[26]
  Average Area Under the Viability Curve (AUC), AUC norm value: 0.08841
[27]
  Average Area Under the Viability Curve (AUC), AUC norm value: 0
[28]
  Average Area Under the Viability Curve (AUC), AUC norm value: 0.02955
[29]
  Average Area Under the Viability Curve (AUC), AUC norm value: −0.6324

## CC(C)C[C@H](NC(=O)CNC(=O)c1cc(Cl)ccc1Cl)B(O)O [MLN2238]
[1]; SNU1750 cells, 12-point dose-response
  area under the viability curve (AUC), normalized: −1.896
[2]; 12-point dose-response
  area under the viability curve (AUC), normalized: −1.21
[3]; 12-point dose-response
  area under the viability curve (AUC), normalized: −0.8166
[4]; SK4 cells, 12-point dose-response
  area under the viability curve (AUC), normalized: 0.5584
[5]; 12-point dose-response
  area under the viability curve (AUC), normalized: 2.808
[6]; 12-point dose-response
  area under the viability curve (AUC), normalized: 0.7701
[7]; 12-point dose-response
  area under the viability curve (AUC), normalized: 0.4168
[8]; 12-point dose-response
  area under the viability curve (AUC), normalized: 0.318
[9]; 12-point dose-response
  area under the viability curve (AUC), normalized: −0.2214
[10]; 12-point dose-response
  area under the viability curve (AUC), normalized: 0.3958
[11]; 12-point dose-response
  area under the viability curve (AUC), normalized: 0.7115
[12]; SNU668 cells, 12-point dose-response
  area under the viability curve (AUC), normalized: 1.1951
[13]; Hs746T cells, 12-point dose-response
  area under the viability curve (AUC), normalized: −1.189
[14]; 12-point dose-response
  area under the viability curve (AUC), normalized: −0.5037
[15]; 12-point dose-response
  area under the viability curve (AUC), normalized: −0.9643
[16]; 12-point dose-response
  area under the viability curve (AUC), normalized: −0.2758
[17]; 12-point dose-response
  area under the viability curve (AUC), normalized: −1.247
[18]; 12-point dose-response
  area under the viability curve (AUC), normalized: −0.5736
[19]; 12-point dose-response
  area under the viability curve (AUC), normalized: −1.676
[20]; MKN45 cells, 12-point dose-response
  area under the viability curve (AUC), normalized: 0.4006
[21]; AGS cells, 12-point dose-response
  area under the viability curve (AUC), normalized: −0.8012
[22]; 12-point dose-response
  area under the viability curve (AUC), normalized: 0.5257
[23]; 12-point dose-response
  area under the viability curve (AUC), normalized: 0.04339
[24]; 12-point dose-response
  area under the viability curve (AUC), normalized: 1.708
[25]; SNU216 cells, 12-point dose-response
  area under the viability curve (AUC), normalized: 0.2331
[26]; YCC11 cells, 12-point dose-response
  area under the viability curve (AUC), normalized: −1.695
[27]; SNU484 cells, 12-point dose-response
  area under the viability curve (AUC), normalized: −0.4125
[28]; 12-point dose-response
  area under the viability curve (AUC), normalized: 2.118
[29]; 12-point dose-response
  area under the viability curve (AUC), normalized: 0
